Measured values reported in patent US8609653B2, “Azaindole compounds and methods for treating HIV” (priority 2011, dated 2013).
Counter-ions that a name gives are not always drawn.

These compounds were tested on HIV (assay: MT4 assay: antiviral HIV activity in MT-4 cells). Conditions: Human immunodeficiency virus 1, MT4, 96 h, read-out: HIV MT4 Assay IC50 (μM), HTLV-1 transformed cell line MT-4; read-out 96 hours later with cell titer glo; 10 point dose response.
Type: cell-based
Procedure, shortened: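 Compounds tested in HTLV-1-transformed MT-4 cells for protection from HIV, with cytotoxicity run in parallel under the same conditions; CellTiter-Glo luminescence read 96 h later. IC50 from 10-point, 3–4-fold serial dilutions spanning >1000-fold, % inhibition relative to no-compound control, fitted by four-parameter logistic.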

| Compound | IC50 [µM] |
| --- | --- |
| Cc1nc2c(ccn2[C@@H](C)c2ccc(F)cc2)c(-c2ccc3c(c2)CCCO3)c1[C@H](OC(C)(C)C)C(=O)O [Example 85, (S)-2-(tert-butoxy)-2-(4-(chroman-6-yl)-1-((S)-1-(4-fluorophenyl)ethyl)-6-methyl-1H-pyrrolo[2,3-b]pyridin-5-yl)acetic acid] | 0.955 |
| Cc1nc2c(ccn2Cc2cccc(F)c2F)c(-c2ccc3c(c2)CCCO3)c1[C@@H](OC(C)(C)C)C(=O)O [Example 86, (R)-2-(tert-butoxy)-2-(4-(chroman-6-yl)-1-(2,3-difluorobenzyl)-6-methyl-1H-pyrrolo[2,3-b]pyridin-5-yl)acetic acid] | 50 |
| Cc1ccc(-c2c([C@H](OC(C)(C)C)C(=O)O)c(C)nc3c2ccn3Cc2ccccc2F)cc1 [Example 88, (S)-2-(tert-butoxy)-2-(1-(2-fluorobenzyl)-6-methyl-4-(p-tolyl)-1H-pyrrolo[2,3-b]pyridin-5-yl)acetic acid] | 0.107 |
| Cc1nc2c(ccn2Cc2ccc(F)cc2Cl)c(-c2ccc(Cl)cc2)c1[C@H](OC(C)(C)C)C(=O)O [Example 89, (S)-2-(tert-butoxy)-2-(1-(2-chloro-4-fluorobenzyl)-4-(4-chlorophenyl)-6-methyl-1H-pyrrolo[2,3-b]pyridin-5-yl)acetic acid] | 0.065 |
| Cc1nc2c(ccn2Cc2ccc(F)cc2)c(-c2ccc(Cl)cc2F)c1C(OC(C)(C)C)C(=O)O (stereo not drawn) [Example 90, 2-(tert-Butoxy)-2-(4-(4-chloro-2-fluorophenyl)-1-(4-fluorobenzyl)-6-methyl-1H-pyrrolo[2,3-b]pyridin-5-yl)acetic acid] | 0.48 |
| Cc1nc2c(ccn2Cc2ccc(F)cc2)c(-c2ccccc2F)c1C(OC(C)(C)C)C(=O)O (stereo not drawn) [Example 91, 2-(tert-Butoxy)-2-(1-(4-fluorobenzyl)-4-(2-fluorophenyl)-6-methyl-1H-pyrrolo[2,3-b]pyridin-5-yl)acetic acid] | 0.168 |
| COc1c(C)cc(-c2c(C(OC(C)(C)C)C(=O)O)c(C)nc3c2ccn3Cc2ccc(F)cc2)cc1C (stereo not drawn) [Example 92, 2-(tert-Butoxy)-2-(1-(4-fluorobenzyl)-4-(4-methoxy-3,5-dimethylphenyl)-6-methyl-1H-pyrrolo[2,3-b]pyridin-5-yl)acetic acid] | 0.98 |
| Cc1ccc(-c2c(C(OC(C)(C)C)C(=O)O)c(C)nc3c2ccn3Cc2ccc(F)cc2)c(F)c1 (stereo not drawn) [Example 93, 2-(tert-Butoxy)-2-(4-(2-fluoro-4-methylphenyl)-1-(4-fluorobenzyl)-6-methyl-1H-pyrrolo[2,3-b]pyridin-5-yl)acetic acid] | 0.046 |
| Cc1cc(Cl)ccc1-c1c(C(OC(C)(C)C)C(=O)O)c(C)nc2c1ccn2Cc1ccc(F)cc1 (stereo not drawn) [Example 94, 2-(tert-Butoxy)-2-(4-(4-chloro-2-methylphenyl)-1-(4-fluorobenzyl)-6-methyl-1H-pyrrolo[2,3-b]pyridin-5-yl)acetic acid, Trifluoroacetic acid salt] | 0.11 |
| Cc1nc2c(ccn2Cc2ccc(F)c(F)c2)c(-c2ccc(F)cc2)c1[C@H](OC(C)(C)C)C(=O)O [Example 102, (S)-2-(tert-Butoxy)-2-(1-(3,4-difluorobenzyl)-4-(4-fluorophenyl)-6-methyl-1H-pyrrolo[2,3-b]193pyridine-5-yl)acetic acid] | 0.367 |
| COc1ccc(-c2c([C@H](OC(C)(C)C)C(=O)O)c(C)nc3c2ccn3Cc2ccc(F)c(F)c2)cc1C [Example 103, (S)-2-(tert-Butoxy)-2-(1-(3,4-difluorobenzyl)-4-(4-methoxy-3-methylphenyl)-6-methyl-1H-pyrrolo[2,3-b]pyridin-5-yl)acetic acid] | 0.81 |
| Cc1nc2c(ccn2Cc2ccc(F)c(F)c2)c(-c2ccc(F)c(Cl)c2)c1[C@H](OC(C)(C)C)C(=O)O [Example 105, (S)-2-(tert-Butoxy)-2-(4-(3-chloro-4-fluorophenyl)-1-(3,4-difluorobenzyl)-6-methyl-1H-pyrrolo[2,3-b]pyridin-5-yl)acetic acid] | 1.42 |
| Cc1nc2c(ccn2Cc2ccc(F)c(F)c2)c(-c2ccc(Cl)c(F)c2)c1[C@H](OC(C)(C)C)C(=O)O [Example 106, (S)-2-(tert-Butoxy)-2-(4-(4-chloro-3-fluorophenyl)-1-(3,4-difluorobenzyl)-6-methyl-1H-pyrrolo[2,3-b]pyridin-5-yl)acetic acid] | 0.1 |
| Cc1nc2c(c(-c3ccc4c(c3C)CCCO4)c1[C@H](OC(C)(C)C)C(=O)O)CCN2Cc1ccc(F)c(F)c1 [Example 107, (2S)(M)-2-(tert-Butoxy)-2-(1-(3,4-difluorobenzyl)-6-methyl-4-(5-methylchroman-6-yl)-2,3-dihydro-1H-pyrrolo[2,3-b]pyridin-5-yl)acetic acid, Trifluoroacetic acid salt] | 0.008 |
| Cc1nc2c(ccn2Cc2ccc(F)c(F)c2)c(-c2ccc3c(c2)CCO3)c1[C@H](OC(C)(C)C)C(=O)O [Example 112, (S)-2-(tert-butoxy)-2-(1-(3,4-difluorobenzyl)-4-(2,3-dihydrobenzofuran-5-yl)-6-methyl-1H-pyrrolo[2,3-b]pyridin-5-yl)acetic acid] | 0.011 |
| Cc1nc2c(ccn2Cc2ccc(F)c(F)c2)c(C2=CCC(C)(C)CC2)c1[C@H](OC(C)(C)C)C(=O)O [Example 114, (S)-2-(tert-butoxy)-2-(1-(3,4-difluorobenzyl)-4-(4,4-dimethylcyclohex-1-en-1-yl)-6-methyl-1H-pyrrolo[2,3-b]pyridin-5-yl)acetic acid] | 0.08 |
| Cc1ccc(-c2c([C@H](OC(C)(C)C)C(=O)O)c(C)nc3c2ccn3Cc2ccc(F)c(F)c2)c(F)c1 [Example 115, (2S)-2-(tert-Butoxy)-2-(1-(3,4-difluorobenzyl)-4-(2-fluoro-4-methylphenyl)-6-methyl-1H-pyrrolo[2,3-b]pyridin-5-yl)acetic acid] | 0.029 |
| Cc1nc2c(ccn2Cc2ccc(F)c(F)c2)c(-c2ccc3ncsc3c2)c1[C@H](OC(C)(C)C)C(=O)O [Example 117, (S)-2-(4-(Benzo[d]thiazol-6-yl)-1-(3,4-difluorobenzyl)-6-methyl-1H-pyrrolo[2,3-b]pyridin-5-yl)-2-(tert-butoxy)acetic acid, Trifluoroacetic acid salt] | 0.036 |
| Cc1nc2c(ccn2Cc2ccc(F)c(F)c2)c(C2=CCCCC2)c1[C@H](OC(C)(C)C)C(=O)O [Example 120, (S)-2-(tert-butoxy)-2-(4-(cyclohex-1-en-1-yl)-1-(3,4-difluorobenzyl)-6-methyl-1H-pyrrolo[2,3-b]pyridin-5-yl)acetic acid] | 0.15 |
| COc1cccc(F)c1Cn1ccc2c(-c3ccc4c(c3C)CCCO4)c([C@H](OC(C)(C)C)C(=O)O)c(C)nc21 [Example 121, (2S)-2-(tert-butoxy)-2-(1-(2-fluoro-6-methoxybenzyl)-6-methyl-4-(5-methylchroman-6-yl)-1H-pyrrolo[2,3-b]pyridin-5-yl)acetic acid] | 0.002 |
| Cc1nc2c(ccn2Cc2ccc(F)c(F)c2)c(-c2ccc3c(c2)C(C)(C)CO3)c1[C@H](OC(C)(C)C)C(=O)O [Example 123, (S)-2-(tert-butoxy)-2-(1-(3,4-difluorobenzyl)-4-(3,3-dimethyl-2,3-dihydrobenzofuran-5-yl)-6-methyl-1H-pyrrolo[2,3-b]pyridin-5-yl)acetic acid] | 2.86 |
